The target in the experiment is SARS-CoV-2 spike protein RBD (Severe acute respiratory syndrome coronavirus 2, UniProt P0DTC2). Description: biochemical. As to conditions: for kon: read-out: Ka; for Binding (Yes/No): pH 7.4. It is filed as binding.

Numbered stars: 1 amine (or outer) side, 2 acyl side, 3 side chain; on linkers, the order of the positions; unused ones are H or OH. Bridge positions count the residues as written; N and C are the ends. Ends that are not written are not given here. Peptide text beside a SMILES is read from it. Suc = O=C(CCC(=O)[*:2])[*:1]

As for `CSCC[C@@H]1NC(=O)[C@H](CC(C)C)NC(=O)[C@H](CCCCN)NC(=O)[C@H](CCC(=O)O)NC(=O)[C@H](Cc2ccccc2)NC(=O)[C@H](CC(C)C)NC(=O)[C@H](CC(=O)O)NC(=O)[C@H](CCC(=O)O)NC(=O)[C@H](C)NC(=O)[C@H](CCC(=O)O)NC(=O)[C@H](Cc2c[nH]cn2)NC(=O)[C@H](CC(N)=O)NC(=O)[C@H](Cc2ccccc2)NC(=O)[C@H](CCCCN)NC1=O` [Peptide 3] (cyclo(AEDLFEKLMKFNHE)), the kon worked out at 15.1 ± 3.8 M⁻¹ s⁻¹.
Same read-out and setting: for `CSCC[C@H](NC(=O)[C@H](CC(C)C)NC(=O)[C@H](CCCCN)NC(=O)[C@H](CCC(=O)O)NC(=O)[C@H](Cc1ccccc1)NC(=O)[C@H](CC(C)C)NC(=O)[C@H](CC(=O)O)NC(=O)[C@H](CCC(=O)O)NC(=O)[C@H](C)NC(=O)[C@H](CCC(=O)O)NC(=O)[C@H](Cc1c[nH]cn1)NC(=O)[C@H](CC(N)=O)NC(=O)[C@H](Cc1ccccc1)NC(=O)[C@H](CCCCN)NC(=O)CCC(=O)O)C(N)=O` [Peptide 4] (Suc-KFNHEAEDLFEKLM-NH2) the value was 13.9 ± 3.6 M⁻¹ s⁻¹; for `CSCC[C@@H]1NC(=O)[C@H](CC(C)C)NC(=O)[C@H](CCCCN)NC(=O)[C@H](CCC(=O)O)NC(=O)[C@H](Cc2ccccc2)NC(=O)[C@H](CC(C)C)NC(=O)[C@H](CC(=O)O)NC(=O)[C@H](CCC(=O)O)NC(=O)[C@H](C)NC(=O)[C@H](CCC(=O)O)NC(=O)[C@H](Cc2c[nH]cn2)NC(=O)[C@H](CC(N)=O)NC(=O)[C@H](Cc2ccccc2)NC(=O)[C@H](CCCCN)NC(=O)[C@@H](N)CSSC[C@@H](C(N)=O)NC1=O` [Peptide 6] (H-CKFNHEAEDLFEKLMC-NH2; disulfide 1-16), 6.84 ± 2.46 M⁻¹ s⁻¹.
As for `CSCC[C@H](NC(=O)[C@H](CC(=O)O)NC(=O)[C@H](CCC(=O)O)NC(=O)[C@H](Cc1ccccc1)NC(=O)[C@H](CC(C)C)NC(=O)[C@H](CCC(=O)O)NC(=O)[C@H](CCC(=O)O)NC(=O)[C@H](Cc1ccccc1)NC(=O)[C@H](CC(C)C)NC(=O)[C@H](CCCCN)NC(=O)[C@H](CCC(=O)O)NC(=O)[C@H](Cc1ccccc1)NC(=O)[C@H](CC(C)C)NC(=O)[C@H](CC(=O)O)NC(=O)[C@H](CCC(=O)O)NC(=O)[C@H](C)NC(=O)[C@H](CCC(=O)O)NC(=O)[C@H](Cc1c[nH]cn1)NC(=O)[C@H](CC(N)=O)NC(=O)[C@H](Cc1ccccc1)NC(=O)[C@H](CCCCN)NC(=O)CCC(=O)O)C(N)=O` [Peptide 7] (Suc-KFNHEAEDLFEKLFEELFEDM-NH2), the Kd entry is “(2.09 ± 0.39) × 10^−2 M^−1”, the “Binding (Yes/No)” value is recorded as “Yes” and the kon was 4.29 ± 0.52 M⁻¹ s⁻¹.
`CC(C)C[C@H](NC(=O)CCC(=O)O)C(=O)N[C@@H](CC(C)C)C(=O)N[C@@H](CCC(=O)O)C(=O)N[C@@H](CCCCN)C(=O)N[C@@H](CC(C)C)C(=O)N[C@@H](CC(C)C)C(=O)N[C@@H](CCC(=O)O)C(=O)N[C@@H](Cc1c[nH]c2ccccc12)C(=O)N[C@@H](CC(C)C)C(=O)N[C@@H](CCC(=O)O)C(N)=O` [Peptide 9] (Suc-LLEKLLEWLE-NH2): the Kd result was “(1.39 ± 0.16) × 10^−2 M^−1”, the “Binding (Yes/No)” value is “Yes” and the kon came out at 5.83 ± 2.92 M⁻¹ s⁻¹.
For the compound Ac-KFNHEAEDLFEKLM [Peptide 5], the kon came out at 0.64 ± 0.09 M⁻¹ s⁻¹.
On the same count and under the same terms, for GLFKEALEELWEA-NH2 [Peptide 8] the value was 5.39 ± 1.31 M⁻¹ s⁻¹; for KFNDEAEDLFKLFEELFEDM-NH2 [Peptide 10], 6.81 ± 2.41 M⁻¹ s⁻¹; for KFNHEAEDLFEKLM [Peptide 1], 4.62 ± 0.45 M⁻¹ s⁻¹.
As to KFNHEAEDLFEKLM-NH2 [Peptide 2], the kon is 1.15 ± 0.08 M⁻¹ s⁻¹.
Consider MIEEQAKFLDKFNHEAEDLFK-NH2 [Peptide 11], for which the “binding to the spike protein RBD at higher concentrations” value is “bound”.

Values taken from article PMC9000588 (Molecules, 2022).
